Earlier results, collected in patent US20220378710A1, “Therapeutic Gas Microfoam for Skin Recovery” (Truly Oxygen, Inc., priority 2018, published 2022).

Conditions: topical co-administration of lipids, mammals

SMILES	increase in absorption and/or bioavailability
C=C(C)[C@@H]1CCC(C)=C[C@H]1c1c(O)cc(CCCCC)cc1O [CBD, cannabidiol]	~3 fold
CCCCCc1cc(O)c2c(c1)OC(C)(C)[C@@H]1CCC(C)=C[C@@H]21 [THC, Δ^9-tetrahydrocannabinol]	more than 2.5 fold
